Data: ChEMBL document CHEMBL5465560, “Selectivity Literature for EUbOPEN Chemogenomic Library” (2024)

Columns and labels:
[1] = target: Serine/threonine-protein kinase pim-2 (Homo sapiens, UniProt Q9P1W9); assay: Selectivity interaction (KinomeScan (DiscoverX)) EUB0000092b PIM2; details: at 10 µM
[2] = target: Ribosomal protein S6 kinase alpha-5 (Homo sapiens) (UniProt O75582); assay: Selectivity interaction (KinomeScan (DiscoverX)) EUB0000092b RPS6KA5; details: at 10 µM
[3] = target: T1, Serine/threonine-protein kinase TNNI3K (Homo sapiens) (UniProt Q59H18); assay: Selectivity interaction (KinomeScan (DiscoverX)) EUB0000666a TNNI3K; details: at 10 µM
T1 sequence (whole entry): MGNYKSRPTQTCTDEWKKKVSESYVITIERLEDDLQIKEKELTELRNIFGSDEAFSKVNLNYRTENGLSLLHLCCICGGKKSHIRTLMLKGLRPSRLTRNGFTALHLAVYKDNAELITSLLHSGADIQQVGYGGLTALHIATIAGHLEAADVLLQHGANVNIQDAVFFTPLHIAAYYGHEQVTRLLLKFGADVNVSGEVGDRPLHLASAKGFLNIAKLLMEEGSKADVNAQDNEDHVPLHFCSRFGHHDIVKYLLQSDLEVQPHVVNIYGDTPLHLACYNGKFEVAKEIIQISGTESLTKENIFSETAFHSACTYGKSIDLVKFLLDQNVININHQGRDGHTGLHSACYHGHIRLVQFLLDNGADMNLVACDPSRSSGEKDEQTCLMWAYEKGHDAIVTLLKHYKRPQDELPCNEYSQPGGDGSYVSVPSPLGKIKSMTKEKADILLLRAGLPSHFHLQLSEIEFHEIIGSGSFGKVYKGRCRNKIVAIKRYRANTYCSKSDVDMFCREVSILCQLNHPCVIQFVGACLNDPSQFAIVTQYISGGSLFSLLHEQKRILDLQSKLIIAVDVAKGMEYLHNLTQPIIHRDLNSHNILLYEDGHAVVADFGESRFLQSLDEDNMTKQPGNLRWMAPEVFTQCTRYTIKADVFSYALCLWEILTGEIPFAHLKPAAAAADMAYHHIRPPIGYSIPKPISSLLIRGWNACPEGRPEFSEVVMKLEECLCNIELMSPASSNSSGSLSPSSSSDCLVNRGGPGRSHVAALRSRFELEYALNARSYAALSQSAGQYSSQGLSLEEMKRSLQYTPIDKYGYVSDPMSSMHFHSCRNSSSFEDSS

[4] = target: T2, Tyrosine-protein kinase Mer (Homo sapiens) (UniProt Q12866); assay: Selectivity interaction (LanthaScreen Eu Kinase Binding Assay) EUB0001632a MERTK; details: at 10 µM
T2 sequence (whole entry): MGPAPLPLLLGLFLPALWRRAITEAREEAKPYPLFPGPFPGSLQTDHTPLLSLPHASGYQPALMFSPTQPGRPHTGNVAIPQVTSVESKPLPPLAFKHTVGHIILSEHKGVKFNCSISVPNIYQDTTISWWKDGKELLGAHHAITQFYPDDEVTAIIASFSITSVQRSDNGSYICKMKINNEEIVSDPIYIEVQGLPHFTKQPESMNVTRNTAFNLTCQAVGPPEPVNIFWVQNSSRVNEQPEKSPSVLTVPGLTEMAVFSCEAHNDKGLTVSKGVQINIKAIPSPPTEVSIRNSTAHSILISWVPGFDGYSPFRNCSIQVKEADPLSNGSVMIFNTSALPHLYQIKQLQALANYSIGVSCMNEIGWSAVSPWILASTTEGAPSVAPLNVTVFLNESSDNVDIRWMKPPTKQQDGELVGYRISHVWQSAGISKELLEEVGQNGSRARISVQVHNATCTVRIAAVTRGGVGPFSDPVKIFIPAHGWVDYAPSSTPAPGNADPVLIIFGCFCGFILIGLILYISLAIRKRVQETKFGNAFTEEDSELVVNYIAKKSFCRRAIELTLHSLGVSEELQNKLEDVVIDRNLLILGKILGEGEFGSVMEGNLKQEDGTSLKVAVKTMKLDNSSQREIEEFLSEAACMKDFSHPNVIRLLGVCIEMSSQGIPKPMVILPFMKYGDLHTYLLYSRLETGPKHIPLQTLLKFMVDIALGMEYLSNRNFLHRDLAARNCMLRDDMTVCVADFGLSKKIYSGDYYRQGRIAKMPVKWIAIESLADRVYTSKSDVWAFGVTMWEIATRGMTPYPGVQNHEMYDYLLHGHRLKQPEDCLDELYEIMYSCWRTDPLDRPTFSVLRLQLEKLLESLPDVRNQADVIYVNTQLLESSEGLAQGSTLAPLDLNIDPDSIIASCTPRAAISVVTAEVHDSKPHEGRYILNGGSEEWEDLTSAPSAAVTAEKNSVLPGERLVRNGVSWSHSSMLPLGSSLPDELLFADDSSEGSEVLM

[5] = target: 3',5'-cyclic-AMP phosphodiesterase 4D (Homo sapiens) (UniProt Q08499); assay: Selectivity interaction (Panel of non-epigenetic targets (kinases, GPCRs, ion channels, and transporters, Eurofins) ) EUB0000271b PDE4D; details: at 1 µM
Sequence of 3',5'-cyclic-AMP phosphodiesterase 4D (Homo sapiens) (Q08499 whole entry): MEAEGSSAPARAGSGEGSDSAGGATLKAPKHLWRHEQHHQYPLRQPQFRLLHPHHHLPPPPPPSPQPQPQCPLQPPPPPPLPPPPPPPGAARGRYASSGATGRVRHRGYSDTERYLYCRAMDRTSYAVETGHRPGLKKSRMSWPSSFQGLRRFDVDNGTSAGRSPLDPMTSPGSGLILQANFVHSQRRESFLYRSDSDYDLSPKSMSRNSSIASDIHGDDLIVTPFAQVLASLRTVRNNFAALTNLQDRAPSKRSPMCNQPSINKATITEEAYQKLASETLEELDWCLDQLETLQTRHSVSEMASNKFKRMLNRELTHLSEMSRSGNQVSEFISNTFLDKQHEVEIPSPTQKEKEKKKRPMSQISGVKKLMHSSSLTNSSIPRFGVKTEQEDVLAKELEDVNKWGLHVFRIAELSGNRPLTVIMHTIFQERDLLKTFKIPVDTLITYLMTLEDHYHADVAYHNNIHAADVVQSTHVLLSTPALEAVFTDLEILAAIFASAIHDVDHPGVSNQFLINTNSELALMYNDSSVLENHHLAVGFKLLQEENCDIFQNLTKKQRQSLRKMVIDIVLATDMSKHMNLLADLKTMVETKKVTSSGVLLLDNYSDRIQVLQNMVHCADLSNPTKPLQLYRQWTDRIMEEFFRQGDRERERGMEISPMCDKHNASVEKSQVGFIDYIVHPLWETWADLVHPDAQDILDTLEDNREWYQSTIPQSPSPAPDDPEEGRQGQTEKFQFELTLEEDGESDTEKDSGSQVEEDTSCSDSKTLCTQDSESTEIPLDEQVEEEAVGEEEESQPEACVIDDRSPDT

[6] = target: Rho-associated protein kinase 1 (Homo sapiens) (UniProt Q13464); assay: Selectivity interaction (KinomeScan (DiscoverX)) EUB0000595a ROCK1; details: at 10 µM
[7] = target: Protein arginine N-methyltransferase 3 (Homo sapiens, UniProt O60678); details: at 1 µM
Sequence of Protein arginine N-methyltransferase 3 (O60678 2-531 limits assumed): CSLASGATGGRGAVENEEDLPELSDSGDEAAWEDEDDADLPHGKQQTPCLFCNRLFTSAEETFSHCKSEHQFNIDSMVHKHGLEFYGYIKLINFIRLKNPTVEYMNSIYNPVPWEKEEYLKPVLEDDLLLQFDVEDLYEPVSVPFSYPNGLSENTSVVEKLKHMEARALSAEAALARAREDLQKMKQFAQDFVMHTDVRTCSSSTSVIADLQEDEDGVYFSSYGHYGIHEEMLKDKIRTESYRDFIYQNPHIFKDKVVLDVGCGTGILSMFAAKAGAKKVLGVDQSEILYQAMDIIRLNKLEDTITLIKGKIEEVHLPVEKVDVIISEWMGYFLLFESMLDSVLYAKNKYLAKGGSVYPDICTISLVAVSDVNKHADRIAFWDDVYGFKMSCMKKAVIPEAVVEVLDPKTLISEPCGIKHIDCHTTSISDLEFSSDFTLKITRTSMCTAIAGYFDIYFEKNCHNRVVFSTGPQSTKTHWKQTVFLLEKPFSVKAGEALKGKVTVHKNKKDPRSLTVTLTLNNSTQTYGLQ

[8] = target: Leucine-rich repeat serine/threonine-protein kinase 2 (Homo sapiens, UniProt Q5S007); details: at 1 µM
Sequence of Leucine-rich repeat serine/threonine-protein kinase 2 (Q5S007 whole entry): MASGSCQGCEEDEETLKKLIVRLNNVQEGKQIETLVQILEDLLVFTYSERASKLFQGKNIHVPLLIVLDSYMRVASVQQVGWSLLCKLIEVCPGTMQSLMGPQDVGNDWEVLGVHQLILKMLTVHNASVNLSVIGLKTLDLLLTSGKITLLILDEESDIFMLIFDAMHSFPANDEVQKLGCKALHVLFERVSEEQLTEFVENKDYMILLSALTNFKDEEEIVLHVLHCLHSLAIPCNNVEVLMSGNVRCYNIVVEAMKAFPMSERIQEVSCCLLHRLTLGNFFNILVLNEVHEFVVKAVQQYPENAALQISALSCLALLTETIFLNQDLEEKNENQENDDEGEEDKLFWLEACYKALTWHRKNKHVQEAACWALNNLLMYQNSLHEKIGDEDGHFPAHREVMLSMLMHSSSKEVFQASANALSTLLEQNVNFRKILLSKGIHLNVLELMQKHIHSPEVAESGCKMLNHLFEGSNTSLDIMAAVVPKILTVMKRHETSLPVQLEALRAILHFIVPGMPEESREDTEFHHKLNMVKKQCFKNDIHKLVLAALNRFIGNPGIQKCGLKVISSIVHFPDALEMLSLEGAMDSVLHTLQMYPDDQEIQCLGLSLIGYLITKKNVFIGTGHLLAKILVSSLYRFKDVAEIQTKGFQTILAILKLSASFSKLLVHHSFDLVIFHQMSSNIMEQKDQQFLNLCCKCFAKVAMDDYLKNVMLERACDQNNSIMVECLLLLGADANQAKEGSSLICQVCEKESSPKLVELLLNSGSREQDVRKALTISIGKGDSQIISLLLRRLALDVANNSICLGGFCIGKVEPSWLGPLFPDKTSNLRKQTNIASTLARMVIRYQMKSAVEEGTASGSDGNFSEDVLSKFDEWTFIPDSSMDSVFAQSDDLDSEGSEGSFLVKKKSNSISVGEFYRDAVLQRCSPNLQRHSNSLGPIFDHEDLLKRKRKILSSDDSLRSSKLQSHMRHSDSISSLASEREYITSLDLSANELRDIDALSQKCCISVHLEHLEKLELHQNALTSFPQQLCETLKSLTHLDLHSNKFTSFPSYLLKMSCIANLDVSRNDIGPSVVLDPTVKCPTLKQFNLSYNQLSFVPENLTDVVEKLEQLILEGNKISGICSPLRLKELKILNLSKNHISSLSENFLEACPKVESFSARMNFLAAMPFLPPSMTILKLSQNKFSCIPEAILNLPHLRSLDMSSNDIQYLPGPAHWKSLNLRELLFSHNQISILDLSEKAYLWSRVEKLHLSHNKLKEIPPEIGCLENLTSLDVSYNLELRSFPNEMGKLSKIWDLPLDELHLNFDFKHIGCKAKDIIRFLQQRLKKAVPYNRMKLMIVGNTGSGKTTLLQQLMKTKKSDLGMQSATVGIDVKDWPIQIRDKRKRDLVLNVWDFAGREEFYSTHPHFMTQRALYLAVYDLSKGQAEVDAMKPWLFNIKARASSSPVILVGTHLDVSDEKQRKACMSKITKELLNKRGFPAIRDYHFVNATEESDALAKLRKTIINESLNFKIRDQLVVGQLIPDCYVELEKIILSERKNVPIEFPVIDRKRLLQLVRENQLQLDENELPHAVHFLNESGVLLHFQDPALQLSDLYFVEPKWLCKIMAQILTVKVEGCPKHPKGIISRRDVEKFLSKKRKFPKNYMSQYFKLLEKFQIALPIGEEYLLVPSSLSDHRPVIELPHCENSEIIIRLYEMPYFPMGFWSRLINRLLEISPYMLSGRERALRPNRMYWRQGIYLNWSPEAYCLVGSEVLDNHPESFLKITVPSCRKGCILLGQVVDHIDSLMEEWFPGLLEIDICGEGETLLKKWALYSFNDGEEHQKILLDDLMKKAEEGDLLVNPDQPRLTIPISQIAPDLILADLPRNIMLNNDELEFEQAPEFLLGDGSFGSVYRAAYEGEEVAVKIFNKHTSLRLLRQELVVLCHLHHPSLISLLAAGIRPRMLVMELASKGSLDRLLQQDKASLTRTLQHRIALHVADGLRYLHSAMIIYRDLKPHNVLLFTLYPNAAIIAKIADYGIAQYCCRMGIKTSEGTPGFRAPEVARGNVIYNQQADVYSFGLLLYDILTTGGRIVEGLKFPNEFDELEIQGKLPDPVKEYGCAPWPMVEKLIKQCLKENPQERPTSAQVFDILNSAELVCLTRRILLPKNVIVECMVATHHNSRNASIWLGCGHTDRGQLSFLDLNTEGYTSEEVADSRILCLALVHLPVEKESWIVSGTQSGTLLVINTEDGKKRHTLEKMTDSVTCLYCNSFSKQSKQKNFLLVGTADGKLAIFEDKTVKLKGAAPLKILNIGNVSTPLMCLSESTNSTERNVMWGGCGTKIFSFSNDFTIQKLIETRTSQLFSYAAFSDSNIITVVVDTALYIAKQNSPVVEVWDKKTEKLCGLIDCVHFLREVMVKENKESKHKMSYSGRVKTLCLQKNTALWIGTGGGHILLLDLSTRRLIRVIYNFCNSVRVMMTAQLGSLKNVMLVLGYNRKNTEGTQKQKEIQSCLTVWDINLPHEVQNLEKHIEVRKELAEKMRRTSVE

Sequence of Serine/threonine-protein kinase pim-2 (Q9P1W9 whole entry, looked up): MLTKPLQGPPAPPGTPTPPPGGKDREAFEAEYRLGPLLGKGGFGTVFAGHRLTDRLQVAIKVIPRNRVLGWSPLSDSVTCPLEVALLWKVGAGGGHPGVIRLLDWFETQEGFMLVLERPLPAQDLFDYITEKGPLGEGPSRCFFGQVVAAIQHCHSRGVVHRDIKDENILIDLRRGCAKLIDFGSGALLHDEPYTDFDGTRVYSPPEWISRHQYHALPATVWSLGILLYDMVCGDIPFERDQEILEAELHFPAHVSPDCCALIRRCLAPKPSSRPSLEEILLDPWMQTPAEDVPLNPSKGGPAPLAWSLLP
Sequence of Ribosomal protein S6 kinase alpha-5 (Homo sapiens) (O75582 whole entry, looked up): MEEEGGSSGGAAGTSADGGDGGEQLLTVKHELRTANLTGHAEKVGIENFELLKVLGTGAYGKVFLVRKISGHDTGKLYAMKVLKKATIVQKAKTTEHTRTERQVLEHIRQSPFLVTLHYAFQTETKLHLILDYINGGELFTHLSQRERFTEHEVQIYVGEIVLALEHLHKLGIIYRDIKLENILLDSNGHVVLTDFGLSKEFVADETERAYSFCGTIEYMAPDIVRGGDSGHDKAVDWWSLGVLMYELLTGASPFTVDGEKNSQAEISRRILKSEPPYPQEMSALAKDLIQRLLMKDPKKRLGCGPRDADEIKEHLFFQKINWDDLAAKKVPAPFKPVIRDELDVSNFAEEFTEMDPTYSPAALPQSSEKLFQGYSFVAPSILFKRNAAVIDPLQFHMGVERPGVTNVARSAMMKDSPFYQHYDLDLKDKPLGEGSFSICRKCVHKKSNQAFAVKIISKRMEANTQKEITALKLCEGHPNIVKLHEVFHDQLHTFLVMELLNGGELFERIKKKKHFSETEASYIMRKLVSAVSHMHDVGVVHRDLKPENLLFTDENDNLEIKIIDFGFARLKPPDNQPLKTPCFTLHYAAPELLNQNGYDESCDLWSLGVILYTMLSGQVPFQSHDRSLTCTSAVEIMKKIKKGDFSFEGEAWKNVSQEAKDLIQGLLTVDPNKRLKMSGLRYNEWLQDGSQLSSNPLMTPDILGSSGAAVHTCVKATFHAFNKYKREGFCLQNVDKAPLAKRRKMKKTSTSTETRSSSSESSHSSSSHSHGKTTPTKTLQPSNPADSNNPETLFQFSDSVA

CCC(=O)N1CCN(c2ccc(-n3c(=O)ccc4cnc5ccc(-c6cnc7ccccc7c6)cc5c43)cc2C(F)(F)F)CC1
% of control [1]: 62%
% of control [2]: 100%

O=C(NOC[C@H](O)CO)c1ccc(F)c(F)c1Nc1ccc(I)cc1F
% of control [3]: 51%

Cn1cc(-n2cnc3c(NCc4nc5cc(Cl)c(Cl)cc5[nH]4)nc(N4CCOCC4)nc32)cn1
% of inhibition [4]: -48.1%

Cc1cc(C)cc([C@@H]2c3cc(C)ccc3NC(=O)CN2C(=O)c2ccc(Br)s2)c1
% of inhibition [5]: -12%

COCC(=O)NC/C=C/c1ccc2ncnc(Nc3ccc(Oc4ccc(C)nc4)c(C)c3)c2c1 [CP-724714]
% of control [6]: 100%

CNCCN1CCC(c2cc(CN(C)C(=O)c3cccc(Oc4ccccc4)c3)ccn2)CC1
% activity [7]: > 90%

N#Cc1cccc(-c2c[nH]c3ncnc(N4CCOCC4)c23)c1
% of control [8]: 43%
